T1: phyB (Arabidopsis thaliana, UniProt P14713)
T1 construct: full length (1172 aa), strep-tagged from Pichia pastoris GS115 or GFP fusion from Saccharomyces cerevisiae; holoprotein with phycocyanobilin; dimer
T1 sequence (P14713 1-1172): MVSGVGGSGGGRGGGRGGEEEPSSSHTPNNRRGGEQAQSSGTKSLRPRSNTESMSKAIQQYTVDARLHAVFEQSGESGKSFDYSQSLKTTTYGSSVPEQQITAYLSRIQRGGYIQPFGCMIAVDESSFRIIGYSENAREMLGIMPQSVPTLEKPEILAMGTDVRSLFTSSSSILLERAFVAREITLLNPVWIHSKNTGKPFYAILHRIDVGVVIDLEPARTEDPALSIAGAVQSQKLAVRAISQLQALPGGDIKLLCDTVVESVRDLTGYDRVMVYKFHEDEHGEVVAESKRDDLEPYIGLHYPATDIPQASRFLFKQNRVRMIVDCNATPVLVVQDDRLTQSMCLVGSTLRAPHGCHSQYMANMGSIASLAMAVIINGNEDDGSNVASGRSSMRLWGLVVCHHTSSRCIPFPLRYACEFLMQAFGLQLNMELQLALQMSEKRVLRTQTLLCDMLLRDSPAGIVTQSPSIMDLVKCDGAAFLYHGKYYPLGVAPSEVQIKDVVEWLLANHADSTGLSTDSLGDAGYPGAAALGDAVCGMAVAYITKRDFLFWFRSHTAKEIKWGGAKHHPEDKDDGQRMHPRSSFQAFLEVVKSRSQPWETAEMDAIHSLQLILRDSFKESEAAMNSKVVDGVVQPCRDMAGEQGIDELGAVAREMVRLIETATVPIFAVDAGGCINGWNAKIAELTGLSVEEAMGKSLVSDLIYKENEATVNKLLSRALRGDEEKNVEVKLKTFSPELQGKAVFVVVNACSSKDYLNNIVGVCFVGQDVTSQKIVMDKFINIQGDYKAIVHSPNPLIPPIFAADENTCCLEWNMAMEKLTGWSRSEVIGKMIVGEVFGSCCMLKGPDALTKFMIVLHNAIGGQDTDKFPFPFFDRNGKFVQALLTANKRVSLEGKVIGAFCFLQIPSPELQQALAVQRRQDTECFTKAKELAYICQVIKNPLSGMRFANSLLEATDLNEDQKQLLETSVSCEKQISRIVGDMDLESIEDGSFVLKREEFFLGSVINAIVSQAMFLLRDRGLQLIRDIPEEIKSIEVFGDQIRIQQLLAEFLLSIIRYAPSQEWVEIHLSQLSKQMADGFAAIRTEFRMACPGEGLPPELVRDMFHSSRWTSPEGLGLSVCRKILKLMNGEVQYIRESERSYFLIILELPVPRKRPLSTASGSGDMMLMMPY

T2: SPA1-Kin (Arabidopsis thaliana, UniProt Q9SYX2, R517E, form not given)
T2 sequence (Q9SYX2 1-545 R517E limits assumed): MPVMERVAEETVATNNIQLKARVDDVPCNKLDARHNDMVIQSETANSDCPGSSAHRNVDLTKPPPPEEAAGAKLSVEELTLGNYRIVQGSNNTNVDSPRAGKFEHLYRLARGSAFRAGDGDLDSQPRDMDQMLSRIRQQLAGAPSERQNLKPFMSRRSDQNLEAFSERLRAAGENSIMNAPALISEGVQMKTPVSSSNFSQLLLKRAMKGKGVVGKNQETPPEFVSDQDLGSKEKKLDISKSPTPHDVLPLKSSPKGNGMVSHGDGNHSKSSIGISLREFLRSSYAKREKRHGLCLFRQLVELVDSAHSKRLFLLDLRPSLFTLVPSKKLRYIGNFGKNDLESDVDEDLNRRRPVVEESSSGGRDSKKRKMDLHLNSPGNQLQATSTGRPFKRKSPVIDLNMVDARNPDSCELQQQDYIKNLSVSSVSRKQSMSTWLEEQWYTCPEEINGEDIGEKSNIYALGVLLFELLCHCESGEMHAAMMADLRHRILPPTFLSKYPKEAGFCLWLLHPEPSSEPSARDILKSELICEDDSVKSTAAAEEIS

T3: Arabidopsis phytochrome B holoprotein purified from Pichia pastoris (Arabidopsis, UniProt P14713 1-1172, phycocyanobilin chromophore assembled)
T3 construct: phytochrome B (phyB), Arabidopsis; also called phyB; Pfr form of phyB; source: Pichia pastoris GS115, purified (ammonium sulfate, Strep-Tactin Sepharose)
T3 sequence (looked up): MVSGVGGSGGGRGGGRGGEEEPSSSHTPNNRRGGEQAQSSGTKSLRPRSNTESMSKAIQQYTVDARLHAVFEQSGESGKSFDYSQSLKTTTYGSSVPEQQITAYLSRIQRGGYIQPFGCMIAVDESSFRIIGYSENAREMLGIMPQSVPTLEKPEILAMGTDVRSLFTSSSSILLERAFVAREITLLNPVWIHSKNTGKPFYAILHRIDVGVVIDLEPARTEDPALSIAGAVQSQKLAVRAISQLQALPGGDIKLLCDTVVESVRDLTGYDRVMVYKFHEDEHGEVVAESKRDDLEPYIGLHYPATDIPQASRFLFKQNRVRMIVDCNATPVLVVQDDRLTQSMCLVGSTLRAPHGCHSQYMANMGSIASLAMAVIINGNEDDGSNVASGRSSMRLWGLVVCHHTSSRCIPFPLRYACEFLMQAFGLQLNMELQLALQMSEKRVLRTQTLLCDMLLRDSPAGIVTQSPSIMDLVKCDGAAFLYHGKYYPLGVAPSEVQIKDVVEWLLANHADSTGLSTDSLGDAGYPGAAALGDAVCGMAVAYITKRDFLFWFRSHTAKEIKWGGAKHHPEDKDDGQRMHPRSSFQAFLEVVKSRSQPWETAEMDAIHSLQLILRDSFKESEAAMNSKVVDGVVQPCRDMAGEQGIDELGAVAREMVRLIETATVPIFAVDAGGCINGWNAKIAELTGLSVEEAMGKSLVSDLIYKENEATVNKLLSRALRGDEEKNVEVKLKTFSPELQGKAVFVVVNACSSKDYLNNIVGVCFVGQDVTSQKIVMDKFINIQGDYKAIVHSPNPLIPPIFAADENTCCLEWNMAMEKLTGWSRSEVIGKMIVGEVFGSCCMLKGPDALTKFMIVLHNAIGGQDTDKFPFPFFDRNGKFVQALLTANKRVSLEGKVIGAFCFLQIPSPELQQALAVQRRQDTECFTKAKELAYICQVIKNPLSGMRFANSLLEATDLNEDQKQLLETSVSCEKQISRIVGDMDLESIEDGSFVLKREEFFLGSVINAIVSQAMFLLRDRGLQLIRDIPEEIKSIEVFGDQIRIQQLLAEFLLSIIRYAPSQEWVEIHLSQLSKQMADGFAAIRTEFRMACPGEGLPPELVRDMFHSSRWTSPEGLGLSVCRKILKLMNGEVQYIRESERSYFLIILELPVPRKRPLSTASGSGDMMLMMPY


Legend:
[1] = molecular target: T1, phyB; experiment: in vitro kinase assay, autoradiogram; type: biochemical; settings: PIF1 as co-substrate, 10 mM MgCl2, pH 7.5, 28 °C; labelled compound (gamma-32P)
[2] = molecular target: T2, SPA1-Kin; experiment: in vitro autophosphorylation assay, autoradiogram; type: biochemical; settings: 10 mM MgCl2, pH 7.5, 28 °C; labelled compound (gamma-32P)
[3] = molecular target: T3, Arabidopsis phytochrome B holoprotein …; experiment: pull-down; tripartite complex: 2 µg GST-PIF1-strep on GST agarose beads, 1-2 µg purified phyB from Pichia pastoris, with E. coli lysate holding MBP-SPA1; anti-strep blot; settings: both partners purified

| binding result [3] | Molecule | in vitro kinase assay, autoradiogram [1] | in vitro autophosphorylation assay, autoradiogram [2] |
| --- | --- | --- | --- |
| – | Nc1ncnc2c1ncn2[C@@H]1O[C@H](COP(=O)(O)OP(=O)(O)OP(=O)(O)O)[C@@H](O)[C@H]1O [ATP] | both SPA1 and phyB independently phosphorylates PIF1 in vitro | significantly reduced auto-phosphorylation activity for the SPA1-Kin^R517E (mSPA1) mutant |
| binds | GST-PIF1-strep (natural protein, Arabidopsis, UniProt Q8GZM7 1-478, looked up, source: E. coli BL21(DE3), purified (Strep-Tactin Sepharose); not shown: GST, N-terminal, kept; Strep tag, C-terminal, kept) MHHFVPDFDTDDDYVNNHNSSLNHLPRKSITTMGEDDDLMELLWQNGQVVVQNQRLHTKKPSSSPPKLLPSMDPQQQPSSDQNLFIQEDEMTSWLHYPLRDDDFCSDLLFSAAPTATATATVSQVTAARPPVSSTNESRPPVRNFMNFSRLRGDFNNGRGGESGPLLSKAVVRESTQVSPSATPSAAASESGLTRRTDGTDSSAVAGGGAYNRKGKAVAMTAPAIEITGTSSSVVSKSEIEPEKTNVDDRKRKEREATTTDETESRSEETKQARVSTTSTKRSRAAEVHNLSERKRRDRINERMKALQELIPRCNKSDKASMLDEAIEYMKSLQLQIQMMSMGCGMMPMMYPGMQQYMPHMAMGMGMNQPIPPPSFMPFPNMLAAQRPLPTQTHMAGSGPQYPVHASDPSRVFVPNQQYDPTSGQPQYPAGYTDPYQQFRGLHPTQPPQFQNQATSYPSSSRVSSSKESEDHGNHTTG | – | – |
